Measured values reported in ChEMBL document CHEMBL4602649, “Identification of 6'-β-fluoro-homoaristeromycin as a potent inhibitor of chikungunya virus replication” (Eur J Med Chem, 2020).
Calls of active or inactive are those of the source. No cut-off for these calls is given here.

Tests used:
SARS-CoV = experiment: Antiviral activity against SARS-CoV Frankfurt1 infected in African green monkey Vero E6 cells pretreated with compound followed by viral infection and measured at 72 hrs post-infection by MTS assay; format: functional, organism-based; conditions: Severe acute respiratory syndrome-related coronavirus; Frankfurt 1; Vero C1008
[1] = test system: Middle East respiratory syndrome-related coronavirus; experiment: Antiviral activity against MERS-CoV EMC/2012 infected in African green monkey Vero cells pretreated with compound followed by viral infection and measured at 72 hrs post-infection by MTS assay; format: functional, organism-based
Adenosylhomocysteinase = Adenosylhomocysteinase (Homo sapiens, UniProt P23526); experiment: Inhibition of human placental SAH hydrolase expressed in Escherichia coli JM109 using SAH as substrate preincubated for 10 mins followed by SAH addition and measured after 20 mins by DNTB reagent-based spectrophotometric method
Chain of Adenosylhomocysteinase (P23526 whole entry): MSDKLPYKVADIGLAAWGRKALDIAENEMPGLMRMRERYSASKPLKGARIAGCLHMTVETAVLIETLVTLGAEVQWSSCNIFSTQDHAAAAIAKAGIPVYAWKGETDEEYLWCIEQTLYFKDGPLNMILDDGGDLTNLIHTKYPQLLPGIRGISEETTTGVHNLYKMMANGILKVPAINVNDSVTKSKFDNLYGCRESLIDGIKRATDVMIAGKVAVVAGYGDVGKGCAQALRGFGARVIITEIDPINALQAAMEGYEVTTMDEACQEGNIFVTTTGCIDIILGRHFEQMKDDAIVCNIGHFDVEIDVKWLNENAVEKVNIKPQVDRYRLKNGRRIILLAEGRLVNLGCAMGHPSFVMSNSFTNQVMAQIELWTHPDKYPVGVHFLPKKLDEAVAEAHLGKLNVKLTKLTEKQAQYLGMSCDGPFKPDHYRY

Chikungunya virus = experiment: Antiviral activity against CHIKV LS3 infected in African green monkey Vero E6 cells assessed as reduction in virus-induced cytopathic effect pretreated with compound followed by viral infection and measured at 96 hrs post-infection by MTS assay; format: functional, organism-based; conditions: LS3, Vero C1008
Vero C1008 = experiment: Cytotoxicity against African green monkey Vero E6 cells assessed as reduction in cell viability measured after 96 hrs by MTS assay; format: cell-based; conditions: chlorocebus sabaeus, vero c1008, 96 h
[2] = Selectivity index, ratio of CC50 for African green monkey Vero E6 cells to EC50 for antiviral activity against CHIKV-LS3 infected in African green monkey Vero E6 cells; format: toxicity, Vero C1008; conditions: read-out: Ratio CC50/EC50
Zika virus = experiment: Antiviral activity against ZIKV SL0612 infected in African green monkey Vero CCL81 cells pretreated with compound followed by viral infection and measured at 96 hrs post-infection by MTS assay; format: functional, organism-based

SMILES: Nc1ncnc2c1ncn2[C@H]1[C@H](O)[C@H](O)[C@@H](CCO)[C@H]1F
- Activity (SARS-CoV): inactive
- Activity [1]: inactive
- IC50 (Adenosylhomocysteinase): 0.36 µM
- EC50 (Chikungunya virus): 0.12 µM
- CC50 (Vero C1008): > 250 µM
- selectivity ratio [2]: > 2080
- Activity (Zika virus): inactive

SMILES: OCC[C@@H]1[C@@H](O)[C@@H](O)[C@H](n2cnc3c(O)ncnc32)[C@@H]1F
- Activity (SARS-CoV): inactive
- Activity [1]: inactive
- IC50 (Adenosylhomocysteinase): > 100 µM
- EC50 (Chikungunya virus): > 100 µM
- CC50 (Vero C1008): > 100 µM
- Activity (Zika virus): inactive

SMILES: CNc1ncnc2c1ncn2[C@H]1[C@H](O)[C@H](O)[C@@H](CCO)C1(F)F
- Activity (SARS-CoV): inactive
- Activity [1]: inactive
- IC50 (Adenosylhomocysteinase): 3.05 µM
- EC50 (Chikungunya virus): > 100 µM
- CC50 (Vero C1008): > 100 µM
- Activity (Zika virus): inactive

SMILES: CNc1ncnc2c1ncn2[C@H]1[C@H](O)[C@H](O)[C@@H](CCO)[C@H]1F
- Activity (SARS-CoV): inactive
- Activity [1]: inactive
- IC50 (Adenosylhomocysteinase): 0.37 µM
- EC50 (Chikungunya virus): > 100 µM
- CC50 (Vero C1008): > 100 µM
- Activity (Zika virus): inactive

SMILES: Nc1ncnc2c1ncn2[C@H]1[C@H](O)[C@H](O)[C@@H](CO)C1(F)F
- Activity (SARS-CoV): Active
- Activity [1]: Active
- EC50 (Chikungunya virus): 0.13 µM
- CC50 (Vero C1008): > 1.25 µM
- Activity (Zika virus): Active

SMILES: Nc1ncnc2c1ncn2[C@H]1[C@H](O)[C@H](O)[C@@H](CO)[C@H]1F
- Activity (SARS-CoV): Active
- Activity [1]: Active
- EC50 (Chikungunya virus): > 100 µM
- CC50 (Vero C1008): > 100 µM
- Activity (Zika virus): Active

SMILES: Nc1ncnc2c1ncn2[C@H]1[C@H](O)[C@H](O)[C@@H](CCO)C1(F)F
- Activity (SARS-CoV): inactive
- Activity [1]: inactive
- IC50 (Adenosylhomocysteinase): 2.03 µM
- EC50 (Chikungunya virus): > 100 µM
- CC50 (Vero C1008): > 25 µM
- Activity (Zika virus): inactive
